Test results published in ChEMBL document CHEMBL5291721, “A preclinical secondary pharmacology resource illuminates target-adverse drug reaction associations of marketed drugs” (Nat Commun, 2023).

Key:
[1] = molecular target: Voltage-gated inwardly rectifying potassium channel KCNH2 (Homo sapiens, UniProt Q12809); type: functional; settings: read-out: AC50
Adenosine receptor A3 [2] = molecular target: T1, Adenosine receptor A3 (Homo sapiens, UniProt P0DMS8)
T1 sequence (P0DMS8 whole entry): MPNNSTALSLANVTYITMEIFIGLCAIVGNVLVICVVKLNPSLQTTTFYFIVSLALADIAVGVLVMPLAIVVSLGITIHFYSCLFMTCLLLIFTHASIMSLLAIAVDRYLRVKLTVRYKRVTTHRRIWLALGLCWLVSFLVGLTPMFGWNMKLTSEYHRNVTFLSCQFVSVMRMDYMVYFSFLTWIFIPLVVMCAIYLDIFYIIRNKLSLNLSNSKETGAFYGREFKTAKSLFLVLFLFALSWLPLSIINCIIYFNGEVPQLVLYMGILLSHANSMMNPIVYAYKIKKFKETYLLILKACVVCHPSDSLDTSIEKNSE

[3] = molecular target: Gamma-aminobutyric acid receptor subunit alpha-1 (Rattus norvegicus, UniProt P62813)
Chain of Gamma-aminobutyric acid receptor subunit alpha-1 (P62813 whole entry): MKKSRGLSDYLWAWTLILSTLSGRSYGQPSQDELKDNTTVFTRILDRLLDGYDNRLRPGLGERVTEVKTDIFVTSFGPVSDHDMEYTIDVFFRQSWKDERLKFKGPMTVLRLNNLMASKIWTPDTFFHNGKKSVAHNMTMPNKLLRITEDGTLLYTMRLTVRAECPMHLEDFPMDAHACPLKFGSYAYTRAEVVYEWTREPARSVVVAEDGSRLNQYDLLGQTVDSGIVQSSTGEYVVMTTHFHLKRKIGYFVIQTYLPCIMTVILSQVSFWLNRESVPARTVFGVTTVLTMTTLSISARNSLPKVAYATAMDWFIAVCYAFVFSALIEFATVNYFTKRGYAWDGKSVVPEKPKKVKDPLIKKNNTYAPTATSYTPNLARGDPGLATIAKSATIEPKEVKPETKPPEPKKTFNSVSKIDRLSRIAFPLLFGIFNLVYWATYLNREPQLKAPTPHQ

[4] = molecular target: Prostaglandin G/H synthase 1 (Homo sapiens, UniProt P23219); type: functional
Chain of Prostaglandin G/H synthase 1 (P23219 whole entry): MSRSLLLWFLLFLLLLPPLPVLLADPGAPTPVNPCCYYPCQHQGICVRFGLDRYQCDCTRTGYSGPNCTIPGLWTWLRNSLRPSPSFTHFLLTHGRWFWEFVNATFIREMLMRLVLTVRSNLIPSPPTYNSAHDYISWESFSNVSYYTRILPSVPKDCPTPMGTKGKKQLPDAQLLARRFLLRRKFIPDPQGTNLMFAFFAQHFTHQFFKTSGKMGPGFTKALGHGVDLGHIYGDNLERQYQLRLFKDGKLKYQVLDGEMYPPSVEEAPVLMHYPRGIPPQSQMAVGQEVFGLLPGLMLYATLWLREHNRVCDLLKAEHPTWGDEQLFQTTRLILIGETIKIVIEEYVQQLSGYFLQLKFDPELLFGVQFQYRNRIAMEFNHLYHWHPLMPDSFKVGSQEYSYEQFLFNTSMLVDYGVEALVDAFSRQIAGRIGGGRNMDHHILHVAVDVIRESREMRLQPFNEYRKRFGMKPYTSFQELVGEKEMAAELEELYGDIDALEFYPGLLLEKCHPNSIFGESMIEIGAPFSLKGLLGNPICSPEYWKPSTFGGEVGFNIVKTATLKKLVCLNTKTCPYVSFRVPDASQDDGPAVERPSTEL

[5] = molecular target: 5-hydroxytryptamine receptor 2B (Homo sapiens, UniProt P41595); type: functional, cell-based
Chain of 5-hydroxytryptamine receptor 2B (P41595 whole entry): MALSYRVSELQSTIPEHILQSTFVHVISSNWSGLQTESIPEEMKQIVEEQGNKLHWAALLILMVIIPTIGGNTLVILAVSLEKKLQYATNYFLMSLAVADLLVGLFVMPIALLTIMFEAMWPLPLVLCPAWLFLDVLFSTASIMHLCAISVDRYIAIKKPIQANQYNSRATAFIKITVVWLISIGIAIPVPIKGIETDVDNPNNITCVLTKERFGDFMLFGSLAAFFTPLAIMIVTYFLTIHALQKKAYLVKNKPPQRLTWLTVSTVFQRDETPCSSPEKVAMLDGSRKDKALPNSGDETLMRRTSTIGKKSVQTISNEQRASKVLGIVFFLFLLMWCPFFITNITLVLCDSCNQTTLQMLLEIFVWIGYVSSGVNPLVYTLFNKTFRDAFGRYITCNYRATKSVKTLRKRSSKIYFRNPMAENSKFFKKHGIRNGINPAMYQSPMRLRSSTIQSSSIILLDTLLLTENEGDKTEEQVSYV

[6] = molecular target: Sodium-dependent dopamine transporter (Homo sapiens, UniProt Q01959)
Chain of Sodium-dependent dopamine transporter (Q01959 whole entry): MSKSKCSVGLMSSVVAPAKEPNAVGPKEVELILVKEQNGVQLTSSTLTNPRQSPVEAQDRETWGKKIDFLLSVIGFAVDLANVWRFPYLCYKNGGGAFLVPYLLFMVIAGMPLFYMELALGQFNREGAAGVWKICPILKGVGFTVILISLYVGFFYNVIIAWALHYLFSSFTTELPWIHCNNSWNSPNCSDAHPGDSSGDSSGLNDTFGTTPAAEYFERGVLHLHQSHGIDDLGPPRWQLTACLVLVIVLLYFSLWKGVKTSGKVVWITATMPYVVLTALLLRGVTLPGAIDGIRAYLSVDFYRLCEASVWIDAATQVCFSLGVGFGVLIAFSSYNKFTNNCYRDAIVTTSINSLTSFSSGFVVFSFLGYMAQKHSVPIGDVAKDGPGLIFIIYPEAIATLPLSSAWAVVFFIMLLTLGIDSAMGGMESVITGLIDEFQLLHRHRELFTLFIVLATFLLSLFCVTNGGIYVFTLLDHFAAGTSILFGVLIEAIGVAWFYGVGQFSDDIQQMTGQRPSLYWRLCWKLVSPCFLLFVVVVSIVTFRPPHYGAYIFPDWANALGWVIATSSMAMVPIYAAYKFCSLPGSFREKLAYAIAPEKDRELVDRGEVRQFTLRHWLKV

[7] = molecular target: T2, Alpha-1A adrenergic receptor (Homo sapiens, UniProt P35348); type: functional, cell-based
T2 sequence (P35348 whole entry): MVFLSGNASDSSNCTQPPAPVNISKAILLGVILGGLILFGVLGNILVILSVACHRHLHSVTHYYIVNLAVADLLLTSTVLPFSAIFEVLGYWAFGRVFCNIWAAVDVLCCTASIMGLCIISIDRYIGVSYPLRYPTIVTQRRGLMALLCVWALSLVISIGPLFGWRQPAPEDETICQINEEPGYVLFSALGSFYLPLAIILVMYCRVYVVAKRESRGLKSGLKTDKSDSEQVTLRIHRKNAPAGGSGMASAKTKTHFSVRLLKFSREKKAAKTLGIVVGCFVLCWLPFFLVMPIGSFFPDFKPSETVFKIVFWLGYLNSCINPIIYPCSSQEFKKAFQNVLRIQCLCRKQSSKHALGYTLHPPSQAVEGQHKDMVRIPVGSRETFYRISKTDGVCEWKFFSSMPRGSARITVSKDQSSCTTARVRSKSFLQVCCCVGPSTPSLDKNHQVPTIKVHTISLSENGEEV

[8] = molecular target: cGMP-inhibited 3',5'-cyclic phosphodiesterase 3A (Homo sapiens, UniProt Q14432); type: functional
[9] = molecular target: T2, Alpha-1A adrenergic receptor; type: functional, cell-based; remark: listed apart in the source
[10] = molecular target: 3',5'-cyclic-AMP phosphodiesterase 4A (Homo sapiens, UniProt P27815); type: functional
Chain of 3',5'-cyclic-AMP phosphodiesterase 4A (P27815 whole entry): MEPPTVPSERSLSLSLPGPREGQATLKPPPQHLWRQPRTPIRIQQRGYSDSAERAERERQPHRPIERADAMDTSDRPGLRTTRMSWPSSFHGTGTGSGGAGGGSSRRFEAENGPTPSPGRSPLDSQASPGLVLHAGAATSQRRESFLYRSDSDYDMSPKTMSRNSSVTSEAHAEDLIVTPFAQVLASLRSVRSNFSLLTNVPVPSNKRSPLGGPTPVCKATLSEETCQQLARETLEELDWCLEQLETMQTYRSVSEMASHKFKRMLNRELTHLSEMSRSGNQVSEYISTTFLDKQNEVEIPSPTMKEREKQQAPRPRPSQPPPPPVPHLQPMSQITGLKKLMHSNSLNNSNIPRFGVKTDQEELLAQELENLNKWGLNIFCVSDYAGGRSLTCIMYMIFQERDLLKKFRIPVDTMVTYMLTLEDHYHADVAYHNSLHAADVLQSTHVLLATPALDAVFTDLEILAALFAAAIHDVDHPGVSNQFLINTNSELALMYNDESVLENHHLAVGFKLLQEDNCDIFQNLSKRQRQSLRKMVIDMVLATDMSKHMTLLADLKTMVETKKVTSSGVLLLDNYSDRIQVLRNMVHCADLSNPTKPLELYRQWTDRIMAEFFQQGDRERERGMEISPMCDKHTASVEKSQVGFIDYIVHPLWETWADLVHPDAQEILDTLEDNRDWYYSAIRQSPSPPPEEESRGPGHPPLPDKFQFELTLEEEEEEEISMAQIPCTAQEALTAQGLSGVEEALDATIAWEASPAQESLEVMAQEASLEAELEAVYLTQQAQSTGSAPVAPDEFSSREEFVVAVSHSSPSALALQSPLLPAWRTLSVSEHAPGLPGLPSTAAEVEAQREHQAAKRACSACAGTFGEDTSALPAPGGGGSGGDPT

Progesterone receptor = molecular target: T3, Progesterone receptor (Homo sapiens, UniProt P06401)
T3 sequence (P06401 whole entry): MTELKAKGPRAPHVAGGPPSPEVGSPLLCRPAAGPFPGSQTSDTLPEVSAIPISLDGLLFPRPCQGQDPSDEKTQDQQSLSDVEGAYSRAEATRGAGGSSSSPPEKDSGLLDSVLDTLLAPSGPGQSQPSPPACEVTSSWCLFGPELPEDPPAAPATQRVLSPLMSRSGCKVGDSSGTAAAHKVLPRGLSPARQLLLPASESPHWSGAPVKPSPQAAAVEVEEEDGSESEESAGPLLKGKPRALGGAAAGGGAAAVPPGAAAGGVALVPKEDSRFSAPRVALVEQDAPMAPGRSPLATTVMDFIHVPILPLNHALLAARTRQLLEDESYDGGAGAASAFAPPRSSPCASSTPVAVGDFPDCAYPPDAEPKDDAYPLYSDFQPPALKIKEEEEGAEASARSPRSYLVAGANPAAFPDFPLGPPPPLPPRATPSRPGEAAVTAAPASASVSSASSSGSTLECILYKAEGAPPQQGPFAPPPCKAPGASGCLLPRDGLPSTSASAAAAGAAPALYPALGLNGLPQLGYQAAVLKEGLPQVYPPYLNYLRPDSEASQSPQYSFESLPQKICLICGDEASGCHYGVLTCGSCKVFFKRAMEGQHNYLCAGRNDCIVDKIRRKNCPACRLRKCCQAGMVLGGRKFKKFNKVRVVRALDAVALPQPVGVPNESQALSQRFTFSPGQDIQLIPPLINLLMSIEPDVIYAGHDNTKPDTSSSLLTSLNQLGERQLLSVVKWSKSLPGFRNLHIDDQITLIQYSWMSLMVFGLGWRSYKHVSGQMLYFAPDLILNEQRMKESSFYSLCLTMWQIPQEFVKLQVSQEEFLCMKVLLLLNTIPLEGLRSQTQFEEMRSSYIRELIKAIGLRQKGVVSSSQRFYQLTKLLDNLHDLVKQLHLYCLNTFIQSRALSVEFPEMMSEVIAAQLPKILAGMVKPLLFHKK

Adenosine receptor A3 [11] = molecular target: T1, Adenosine receptor A3; remark: listed apart in the source
Estrogen receptor = molecular target: T4, Estrogen receptor (Homo sapiens, UniProt P03372)
T4 sequence (P03372 whole entry): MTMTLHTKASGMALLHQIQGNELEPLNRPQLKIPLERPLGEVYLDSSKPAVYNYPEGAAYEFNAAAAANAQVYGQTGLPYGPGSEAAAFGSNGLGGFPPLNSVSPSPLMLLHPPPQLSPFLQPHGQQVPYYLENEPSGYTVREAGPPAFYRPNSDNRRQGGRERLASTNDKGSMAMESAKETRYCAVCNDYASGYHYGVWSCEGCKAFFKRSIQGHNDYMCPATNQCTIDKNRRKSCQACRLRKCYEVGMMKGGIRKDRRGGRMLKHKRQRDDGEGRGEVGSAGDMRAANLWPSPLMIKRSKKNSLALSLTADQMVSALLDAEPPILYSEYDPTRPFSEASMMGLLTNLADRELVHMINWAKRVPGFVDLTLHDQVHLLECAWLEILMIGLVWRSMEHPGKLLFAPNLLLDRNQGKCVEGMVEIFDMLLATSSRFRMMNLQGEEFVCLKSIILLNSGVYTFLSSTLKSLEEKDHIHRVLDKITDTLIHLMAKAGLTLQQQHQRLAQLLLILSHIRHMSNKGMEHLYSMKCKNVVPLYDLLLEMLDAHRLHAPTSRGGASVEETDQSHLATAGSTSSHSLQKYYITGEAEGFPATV
Also: assay procedure not described here.

Chain of Voltage-gated inwardly rectifying potassium channel KCNH2 (Q12809 whole entry): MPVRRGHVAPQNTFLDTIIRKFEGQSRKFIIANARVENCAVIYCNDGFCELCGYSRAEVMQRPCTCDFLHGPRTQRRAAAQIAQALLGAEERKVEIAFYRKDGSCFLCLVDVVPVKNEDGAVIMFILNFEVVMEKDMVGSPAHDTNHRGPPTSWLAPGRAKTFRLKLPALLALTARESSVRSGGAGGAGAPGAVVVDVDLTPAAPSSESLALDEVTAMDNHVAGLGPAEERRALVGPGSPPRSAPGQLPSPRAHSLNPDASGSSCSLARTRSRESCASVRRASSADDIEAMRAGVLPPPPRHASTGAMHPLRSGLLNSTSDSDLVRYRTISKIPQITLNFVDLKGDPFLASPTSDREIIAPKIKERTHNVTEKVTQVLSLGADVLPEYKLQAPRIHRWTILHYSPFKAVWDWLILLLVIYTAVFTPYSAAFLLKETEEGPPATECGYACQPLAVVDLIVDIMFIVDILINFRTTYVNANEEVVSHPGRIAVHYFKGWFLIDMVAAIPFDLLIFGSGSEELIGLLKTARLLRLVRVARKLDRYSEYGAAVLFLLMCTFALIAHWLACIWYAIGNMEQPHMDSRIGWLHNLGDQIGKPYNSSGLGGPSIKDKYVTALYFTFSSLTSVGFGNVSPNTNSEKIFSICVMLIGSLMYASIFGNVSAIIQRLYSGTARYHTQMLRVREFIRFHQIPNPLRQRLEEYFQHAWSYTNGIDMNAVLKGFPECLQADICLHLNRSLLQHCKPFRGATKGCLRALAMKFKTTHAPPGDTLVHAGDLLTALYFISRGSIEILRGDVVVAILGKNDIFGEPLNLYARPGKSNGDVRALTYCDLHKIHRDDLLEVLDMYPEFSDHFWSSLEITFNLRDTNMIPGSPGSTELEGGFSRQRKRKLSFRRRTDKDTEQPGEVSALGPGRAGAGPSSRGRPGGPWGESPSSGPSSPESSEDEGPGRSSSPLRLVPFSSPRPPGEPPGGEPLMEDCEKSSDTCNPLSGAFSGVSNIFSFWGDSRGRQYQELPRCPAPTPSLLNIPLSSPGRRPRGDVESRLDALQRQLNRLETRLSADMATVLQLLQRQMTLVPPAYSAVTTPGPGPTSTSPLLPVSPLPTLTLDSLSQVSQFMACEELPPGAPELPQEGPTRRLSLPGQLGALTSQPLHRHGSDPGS

SMILES	AC50 [1] [µM]	AC50 (Adenosine receptor A3 [2]) [µM]	AC50 [3] [µM]	AC50 [4] [µM]	AC50 [5] [µM]	AC50 [6] [µM]	AC50 [7] [µM]	AC50 [8] [µM]	AC50 [9] [µM]	AC50 [10] [µM]	AC50 (Progesterone receptor) [µM]	AC50 (Adenosine receptor A3 [11]) [µM]	AC50 (Estrogen receptor) [µM]
CC(C)=CCOc1ccc(/C=C/C(=O)c2ccc(OCC=C(C)C)cc2OCC(=O)O)cc1 [SOFALCONE]	> 30	5.5	> 30	–	–	–	–	–	–	–	–	–	–
C[C@]12CC[C@H](O)CC1=CC[C@@H]1[C@@H]2CC[C@]2(C)C(c3cccnc3)=CC[C@@H]12 [ABIRATERONE]	> 30	> 30	> 10	–	–	–	–	–	–	–	–	–	–
CN(C)c1cc(NC(=O)CNC(C)(C)C)c(O)c2c1C[C@H]1C[C@H]3[C@H](N(C)C)C(O)=C(C(N)=O)C(=O)[C@@]3(O)C(O)=C1C2=O [TIGECYCLINE]	> 30	26.9	> 30	–	–	–	–	–	–	–	–	–	–
COCCCOc1ccnc(C[S+]([O-])c2nc3ccccc3[nH]2)c1C (stereo not given) [RABEPRAZOLE]	5.33	2.2	> 10	0.71	> 30	> 30	> 30	> 30	> 30	> 30	> 30	–	–
NS(=O)(=O)c1cc(C2(O)NC(=O)c3ccccc32)ccc1Cl (stereo not given) [CHLORTHALIDONE]	> 30	> 10	> 10	–	–	–	–	–	–	–	–	–	–
COc1ccc2c(c1)[C@]13CCCC[C@@H]1[C@H](C2)N(C)CC3 [DEXTROMETHORPHAN]	21.1	> 30	> 10	–	–	–	–	–	–	–	–	–	–
C[C@H]1O[C@@H](O[C@H]2[C@@H](O)C[C@H](O[C@H]3[C@@H](O)C[C@H](O[C@H]4CC[C@@]5(C)[C@H](CC[C@@H]6[C@@H]5CC[C@]5(C)[C@@H](C7=CC(=O)OC7)CC[C@]65O)C4)O[C@@H]3C)O[C@@H]2C)C[C@H](O)[C@@H]1O [DIGITOXIN]	> 30	–	–	> 30	> 30	> 30	> 30	> 30	> 30	> 30	> 30	> 30	> 30
O=C(Oc1ccccc1C(=O)O)c1ccccc1O [SALSALATE]	> 30	–	–	> 30	> 30	> 30	> 30	> 30	> 30	> 30	> 30	> 30	> 30
O=C(O)CSCC(=O)NC1CCSC1=O (stereo not given) [ERDOSTEINE]	> 30	> 30	> 30	–	–	–	–	–	–	–	–	–	–
c1ccc2[nH]c(-c3cscn3)nc2c1 [THIABENDAZOLE]	> 30	–	–	> 30	> 30	> 30	> 30	> 30	> 30	> 30	> 30	3.73	> 30
C[C@@H]1CCC[C@H](C)N1NC(=O)c1ccc(Cl)c(S(N)(=O)=O)c1 [CLOPAMIDE]	> 30	> 30	> 30	–	–	–	–	–	–	–	–	–	–
COc1cccc(N(C)C(=S)Oc2ccc3c(c2)CCCC3)n1 [LIRANAFTATE]	> 30	> 30	> 30	–	–	–	–	–	–	–	–	–	–
O=C(CCCN1CCC2(CC1)C(=O)NCN2c1ccccc1)c1ccc(F)cc1 [SPIPERONE]	0.22	> 30	> 30	–	–	–	–	–	0.081	–	–	–	–
O=C(O)CC(O)(CC(=O)O)C(=O)O [CITRIC ACID]	–	–	–	> 30	> 30	> 30	> 30	> 30	> 30	> 30	> 30	> 30	> 30
NS(=O)(=O)c1cc(C(=O)O)cc(N2CCCC2)c1Oc1ccccc1 [PIRETANIDE]	> 30	> 30	> 30	–	–	–	–	–	–	–	–	–	–
C#C[C@]1(O)CC[C@H]2[C@@H]3CCc4cc(OC)ccc4[C@H]3CC[C@@]21C [MESTRANOL]	> 30	> 30	> 10	–	–	–	–	–	–	–	–	–	–
OCCN1CCN(CC/C=C2/c3ccccc3Sc3ccc(Cl)cc32)CC1 [ZUCLOPENTHIXOL]	0.9	> 10	> 10	–	–	–	–	–	–	–	–	–	–
O=C(O)c1cc(O)c2c3nc4ccccc4oc-3cc(=O)c2n1 [PIRENOXINE]	> 30	> 30	> 30	–	–	–	–	–	–	–	–	–	–
CNCCCC1c2ccccc2C=Cc2ccccc21 [PROTRIPTYLINE]	1	> 10	> 10	–	–	–	–	–	–	–	–	–	–
O=c1oc2ccccc2c(O)c1Cc1c(O)c2ccccc2oc1=O [DICUMAROL]	> 30	> 10	> 10	–	–	–	–	–	–	–	–	–	–
O=C(CCCN1CC=C(n2c(=O)[nH]c3ccccc32)CC1)c1ccc(F)cc1 [DROPERIDOL]	–	–	–	> 30	> 30	> 30	> 30	> 30	> 30	> 30	> 30	> 30	> 30
CO[C@@]1(NC(=O)CSCC#N)C(=O)N2C(C(=O)O)=C(CSc3nnnn3C)CS[C@@H]21 [CEFMETAZOLE]	> 30	–	–	> 30	> 30	> 30	–	> 30	–	> 30	> 30	–	> 30
N=C(N)c1ccc2cc(OC(=O)c3ccc(N=C(N)N)cc3)ccc2c1 [NAFAMOSTAT]	3.3	21	3.5	–	–	–	–	–	–	–	–	–	–
C[C@H]1C[C@H]2[C@@H]3CCC4=CC(=O)C=C[C@]4(C)[C@@]3(Cl)[C@@H](O)C[C@]2(C)[C@@]1(O)C(=O)CO [BECLOMETHASONE]	–	> 30	> 10	–	–	–	–	–	–	–	–	–	–
CN(C)C(=O)Oc1cc(OC(=O)N(C)C)cc(C(O)CNC(C)(C)C)c1 (stereo not given) [BAMBUTEROL]	16	> 30	–	–	–	–	–	–	–	–	–	–	–
